In ChEMBL document CHEMBL4507324 (2021):

What was measured:
Details in all cases: Compound concentration 100.0 nM
[1] = system: ALK tyrosine kinase receptor (Homo sapiens), Q9UM73 [L1196M]
[2] = molecular target: NUAK family SNF1-like kinase 1 (Homo sapiens) (UniProt O60285)
[3] = molecular target: Serine/threonine-protein kinase B-raf (Homo sapiens, UniProt P15056)
[4] = molecular target: Calcium/calmodulin-dependent protein kinase type II subunit alpha (Homo sapiens) (UniProt Q9UQM7)
[5] = molecular target: Peripheral plasma membrane protein CASK (Homo sapiens) (UniProt O14936)
[6] = molecular target: Cyclin-dependent kinase 11B (Homo sapiens) (UniProt P21127)
[7] = molecular target: Cyclin-dependent kinase 13 (Homo sapiens) (UniProt Q14004)
Chain of Cyclin-dependent kinase 13 (Homo sapiens) (Q14004 whole entry, looked up): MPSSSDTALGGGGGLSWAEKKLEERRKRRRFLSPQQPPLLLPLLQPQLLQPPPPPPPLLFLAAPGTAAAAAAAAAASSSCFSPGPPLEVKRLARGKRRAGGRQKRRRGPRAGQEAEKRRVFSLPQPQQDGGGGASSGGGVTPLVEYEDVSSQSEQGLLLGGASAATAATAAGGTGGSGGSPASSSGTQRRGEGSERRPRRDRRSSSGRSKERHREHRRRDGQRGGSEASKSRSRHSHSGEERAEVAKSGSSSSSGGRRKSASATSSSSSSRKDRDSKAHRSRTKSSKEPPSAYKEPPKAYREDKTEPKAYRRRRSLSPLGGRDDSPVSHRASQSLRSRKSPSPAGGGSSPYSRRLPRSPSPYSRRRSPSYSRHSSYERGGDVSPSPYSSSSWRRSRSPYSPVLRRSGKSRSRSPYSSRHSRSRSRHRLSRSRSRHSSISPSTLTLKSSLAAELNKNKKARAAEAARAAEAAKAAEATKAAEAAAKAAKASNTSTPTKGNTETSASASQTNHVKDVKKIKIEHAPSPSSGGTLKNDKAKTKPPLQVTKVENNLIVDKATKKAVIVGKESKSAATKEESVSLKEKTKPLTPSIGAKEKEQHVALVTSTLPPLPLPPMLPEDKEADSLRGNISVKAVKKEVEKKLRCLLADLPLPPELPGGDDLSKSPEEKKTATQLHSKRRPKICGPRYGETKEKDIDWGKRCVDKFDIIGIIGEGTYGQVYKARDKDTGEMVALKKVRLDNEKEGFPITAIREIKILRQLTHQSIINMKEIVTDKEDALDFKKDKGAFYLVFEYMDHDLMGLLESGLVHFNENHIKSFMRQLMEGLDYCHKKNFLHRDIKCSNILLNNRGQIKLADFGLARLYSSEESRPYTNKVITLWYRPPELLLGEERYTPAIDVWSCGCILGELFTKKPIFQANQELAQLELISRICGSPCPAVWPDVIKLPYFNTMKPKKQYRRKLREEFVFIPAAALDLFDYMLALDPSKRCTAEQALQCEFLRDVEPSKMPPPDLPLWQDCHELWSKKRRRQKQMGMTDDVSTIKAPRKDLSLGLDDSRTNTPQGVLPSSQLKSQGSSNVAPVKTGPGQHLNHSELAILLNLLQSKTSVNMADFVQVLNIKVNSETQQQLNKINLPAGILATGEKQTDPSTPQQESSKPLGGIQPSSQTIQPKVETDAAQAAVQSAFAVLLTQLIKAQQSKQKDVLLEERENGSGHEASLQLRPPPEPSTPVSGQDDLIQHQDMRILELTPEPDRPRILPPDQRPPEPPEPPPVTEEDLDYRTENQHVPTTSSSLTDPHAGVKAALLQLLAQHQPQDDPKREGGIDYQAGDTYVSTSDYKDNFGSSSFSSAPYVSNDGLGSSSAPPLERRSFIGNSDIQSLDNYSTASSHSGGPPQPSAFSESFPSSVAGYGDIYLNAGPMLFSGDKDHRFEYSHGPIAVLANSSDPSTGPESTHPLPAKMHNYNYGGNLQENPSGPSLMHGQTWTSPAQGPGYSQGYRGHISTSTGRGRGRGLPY

[8] = molecular target: Cyclin-dependent kinase-like 1 (Homo sapiens) (UniProt Q00532)
[9] = molecular target: Dual specificity protein kinase CLK4 (Homo sapiens) (UniProt Q9HAZ1)
[10] = molecular target: Megakaryocyte-associated tyrosine-protein kinase (Homo sapiens) (UniProt P42679)
Chain of Megakaryocyte-associated tyrosine-protein kinase (Homo sapiens) (P42679 whole entry): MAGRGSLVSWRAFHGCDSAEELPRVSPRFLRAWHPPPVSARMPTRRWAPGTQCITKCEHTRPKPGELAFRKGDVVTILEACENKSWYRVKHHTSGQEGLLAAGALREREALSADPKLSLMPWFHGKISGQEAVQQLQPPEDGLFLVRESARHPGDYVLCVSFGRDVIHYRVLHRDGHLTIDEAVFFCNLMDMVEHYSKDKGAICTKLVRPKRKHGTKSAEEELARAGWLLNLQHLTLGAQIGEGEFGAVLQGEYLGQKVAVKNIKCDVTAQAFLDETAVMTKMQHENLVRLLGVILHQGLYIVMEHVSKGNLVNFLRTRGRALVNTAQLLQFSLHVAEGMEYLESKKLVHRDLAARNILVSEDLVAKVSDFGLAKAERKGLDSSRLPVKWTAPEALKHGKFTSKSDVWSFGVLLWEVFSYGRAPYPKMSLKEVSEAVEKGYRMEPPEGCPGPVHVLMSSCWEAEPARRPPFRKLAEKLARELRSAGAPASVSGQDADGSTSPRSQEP

[11] = molecular target: Serine/threonine-protein kinase DCLK2 (Homo sapiens) (UniProt Q8N568)
[12] = system: Epidermal growth factor receptor (Homo sapiens), P00533 [L861Q]
[13] = molecular target: Ephrin type-B receptor 3 (Homo sapiens) (UniProt P54753)
[14] = molecular target: Ephrin type-B receptor 4 (Homo sapiens) (UniProt P54760)
[15] = molecular target: Fibroblast growth factor receptor 3 (Homo sapiens) (UniProt P22607)
[16] = system: Receptor-type tyrosine-protein kinase FLT3 (Homo sapiens), P36888 [D835V]
[17] = system: Receptor-type tyrosine-protein kinase FLT3 (Homo sapiens), P36888 [UNDEFINED MUTATION]
[18] = molecular target: Vascular endothelial growth factor receptor 3 (Homo sapiens) (UniProt P35916)
[19] = molecular target: Mitogen-activated protein kinase 8 (Homo sapiens) (UniProt P45983)
Chain of Mitogen-activated protein kinase 8 (Homo sapiens) (P45983 whole entry, the tested form may be a part): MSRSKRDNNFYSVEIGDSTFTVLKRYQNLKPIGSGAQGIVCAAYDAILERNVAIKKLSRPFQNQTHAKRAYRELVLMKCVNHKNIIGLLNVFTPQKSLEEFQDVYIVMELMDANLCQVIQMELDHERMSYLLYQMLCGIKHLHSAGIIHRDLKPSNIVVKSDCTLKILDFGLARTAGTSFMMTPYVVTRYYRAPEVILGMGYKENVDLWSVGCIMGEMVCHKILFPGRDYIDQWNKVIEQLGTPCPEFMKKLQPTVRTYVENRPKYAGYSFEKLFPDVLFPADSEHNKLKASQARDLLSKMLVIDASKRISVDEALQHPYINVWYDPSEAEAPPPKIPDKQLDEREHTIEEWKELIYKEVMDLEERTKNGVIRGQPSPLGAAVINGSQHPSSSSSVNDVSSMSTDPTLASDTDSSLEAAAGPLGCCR

[20] = molecular target: LIM domain kinase 2 (Homo sapiens) (UniProt P53671)
[21] = molecular target: Mitogen-activated protein kinase kinase kinase 15 (Homo sapiens) (UniProt Q6ZN16)
[22] = molecular target: Mitogen-activated protein kinase kinase kinase 2 (Homo sapiens) (UniProt Q9Y2U5)
[23] = molecular target: MAP/microtubule affinity-regulating kinase 3 (Homo sapiens) (UniProt P27448)
[24] = molecular target: Dual specificity mitogen-activated protein kinase kinase 3 (Homo sapiens) (UniProt P46734)
[25] = molecular target: Tyrosine-protein kinase Mer (Homo sapiens) (UniProt Q12866)
Chain of Tyrosine-protein kinase Mer (Homo sapiens) (Q12866 whole entry): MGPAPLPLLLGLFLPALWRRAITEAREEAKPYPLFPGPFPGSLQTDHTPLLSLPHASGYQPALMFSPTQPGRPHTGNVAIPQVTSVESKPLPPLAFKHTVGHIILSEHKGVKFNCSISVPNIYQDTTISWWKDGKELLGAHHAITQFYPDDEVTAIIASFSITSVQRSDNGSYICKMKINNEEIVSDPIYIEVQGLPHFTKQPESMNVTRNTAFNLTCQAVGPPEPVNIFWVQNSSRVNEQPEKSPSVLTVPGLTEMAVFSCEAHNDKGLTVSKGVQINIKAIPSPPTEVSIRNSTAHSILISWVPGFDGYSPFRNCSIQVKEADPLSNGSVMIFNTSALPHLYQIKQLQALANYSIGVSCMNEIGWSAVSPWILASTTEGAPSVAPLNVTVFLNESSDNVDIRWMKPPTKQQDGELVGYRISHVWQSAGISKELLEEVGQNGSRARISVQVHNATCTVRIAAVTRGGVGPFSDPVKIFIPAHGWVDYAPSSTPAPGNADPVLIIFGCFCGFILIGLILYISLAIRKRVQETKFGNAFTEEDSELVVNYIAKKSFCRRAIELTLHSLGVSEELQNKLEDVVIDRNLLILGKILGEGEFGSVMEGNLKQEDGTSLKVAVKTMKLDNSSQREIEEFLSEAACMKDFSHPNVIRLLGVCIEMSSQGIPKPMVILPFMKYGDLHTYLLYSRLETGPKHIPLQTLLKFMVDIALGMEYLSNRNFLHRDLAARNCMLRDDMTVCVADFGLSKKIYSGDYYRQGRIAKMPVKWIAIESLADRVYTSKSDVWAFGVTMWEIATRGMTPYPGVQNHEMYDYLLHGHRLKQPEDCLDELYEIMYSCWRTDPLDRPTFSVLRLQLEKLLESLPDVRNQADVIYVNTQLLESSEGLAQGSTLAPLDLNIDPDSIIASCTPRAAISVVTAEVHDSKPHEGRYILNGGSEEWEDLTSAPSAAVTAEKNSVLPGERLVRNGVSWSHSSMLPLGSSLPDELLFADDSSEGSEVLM

[26] = molecular target: Dual specificity mitogen-activated protein kinase kinase 7 (Homo sapiens) (UniProt O14733)
[27] = molecular target: MAP kinase-interacting serine/threonine-protein kinase 2 (Homo sapiens) (UniProt Q9HBH9)
Chain of MAP kinase-interacting serine/threonine-protein kinase 2 (Homo sapiens) (Q9HBH9 whole entry, looked up): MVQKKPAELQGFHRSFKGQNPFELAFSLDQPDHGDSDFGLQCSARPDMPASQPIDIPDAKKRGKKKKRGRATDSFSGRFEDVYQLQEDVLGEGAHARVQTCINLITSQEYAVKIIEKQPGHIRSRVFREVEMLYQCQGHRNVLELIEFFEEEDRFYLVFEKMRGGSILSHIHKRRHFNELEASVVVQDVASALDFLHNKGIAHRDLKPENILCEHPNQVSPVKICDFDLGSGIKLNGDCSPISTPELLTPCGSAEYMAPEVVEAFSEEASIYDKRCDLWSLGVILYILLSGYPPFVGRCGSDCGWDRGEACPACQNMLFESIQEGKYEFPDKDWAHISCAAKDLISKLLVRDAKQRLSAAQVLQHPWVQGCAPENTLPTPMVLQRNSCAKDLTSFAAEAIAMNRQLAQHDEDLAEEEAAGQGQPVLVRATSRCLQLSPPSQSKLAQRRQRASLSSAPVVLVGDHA

[28] = molecular target: Myosin light chain kinase (Homo sapiens) (UniProt Q32MK0)
[29] = molecular target: Serine/threonine-protein kinase 3 (Homo sapiens) (UniProt Q13188)
[30] = molecular target: Serine/threonine-protein kinase Nek5 (Homo sapiens) (UniProt Q6P3R8)
[31] = molecular target: Platelet-derived growth factor receptor beta (Homo sapiens) (UniProt P09619)
[32] = molecular target: Cyclin-dependent kinase 14 (Homo sapiens) (UniProt O94921)
[33] = system: Phosphatidylinositol 4,5-bisphosphate 3-kinase catalytic subunit alpha isoform (Homo sapiens), P42336 [Q546K]
[34] = molecular target: Phosphatidylinositol 4-kinase beta (Homo sapiens) (UniProt Q9UBF8)
[35] = molecular target: Serine/threonine-protein kinase pim-3 (Homo sapiens) (UniProt Q86V86)
[36] = molecular target: Serine/threonine-protein kinase RIO1 (Homo sapiens) (UniProt Q9BRS2)
[37] = molecular target: Ribosomal protein S6 kinase alpha-3 (Homo sapiens) (UniProt P51812)
[38] = molecular target: Serine/threonine-protein kinase SIK2 (Homo sapiens) (UniProt Q9H0K1)
[39] = molecular target: NUAK family SNF1-like kinase 2 (Homo sapiens) (UniProt Q9H093)
[40] = molecular target: Tyrosine-protein kinase receptor Tie-1 (Homo sapiens) (UniProt P35590)
Chain of Tyrosine-protein kinase receptor Tie-1 (Homo sapiens) (P35590 whole entry): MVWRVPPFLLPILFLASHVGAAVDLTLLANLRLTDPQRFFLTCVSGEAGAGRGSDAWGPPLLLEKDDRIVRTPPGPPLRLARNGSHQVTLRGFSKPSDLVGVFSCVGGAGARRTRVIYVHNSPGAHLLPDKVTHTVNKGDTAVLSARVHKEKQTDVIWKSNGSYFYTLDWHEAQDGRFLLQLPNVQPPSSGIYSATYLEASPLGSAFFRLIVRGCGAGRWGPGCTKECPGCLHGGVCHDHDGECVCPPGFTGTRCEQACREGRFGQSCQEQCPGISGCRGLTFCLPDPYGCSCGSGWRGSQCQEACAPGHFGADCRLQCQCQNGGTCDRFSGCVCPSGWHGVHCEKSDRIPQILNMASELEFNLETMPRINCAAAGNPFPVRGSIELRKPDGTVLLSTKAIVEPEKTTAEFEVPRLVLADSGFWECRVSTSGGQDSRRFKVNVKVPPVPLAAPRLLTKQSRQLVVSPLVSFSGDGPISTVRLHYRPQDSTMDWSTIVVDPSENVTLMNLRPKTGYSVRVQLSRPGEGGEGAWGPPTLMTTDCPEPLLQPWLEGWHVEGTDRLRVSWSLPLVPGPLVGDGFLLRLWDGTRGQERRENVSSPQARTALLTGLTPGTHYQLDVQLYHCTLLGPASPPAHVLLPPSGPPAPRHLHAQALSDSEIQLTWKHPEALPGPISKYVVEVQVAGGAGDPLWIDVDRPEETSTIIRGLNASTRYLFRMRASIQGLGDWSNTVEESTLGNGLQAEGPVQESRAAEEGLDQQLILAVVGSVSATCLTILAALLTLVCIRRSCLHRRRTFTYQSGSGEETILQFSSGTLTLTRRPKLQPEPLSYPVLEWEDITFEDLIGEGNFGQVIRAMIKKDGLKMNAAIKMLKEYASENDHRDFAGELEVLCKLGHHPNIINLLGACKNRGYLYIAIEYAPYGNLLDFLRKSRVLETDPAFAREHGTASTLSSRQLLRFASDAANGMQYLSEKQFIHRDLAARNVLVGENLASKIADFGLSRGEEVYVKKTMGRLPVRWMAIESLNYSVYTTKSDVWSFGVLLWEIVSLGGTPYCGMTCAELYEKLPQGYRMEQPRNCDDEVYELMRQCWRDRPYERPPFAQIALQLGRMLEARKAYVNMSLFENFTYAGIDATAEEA

[41] = molecular target: Transient receptor potential cation channel subfamily M member 6 (Homo sapiens) (UniProt Q9BX84)
[42] = molecular target: Serine/threonine-protein kinase ULK3 (Homo sapiens) (UniProt Q6PHR2)
[43] = molecular target: Serine/threonine-protein kinase WNK1 (Homo sapiens) (UniProt Q9H4A3)
[44] = molecular target: Tyrosine-protein kinase Yes (Homo sapiens) (UniProt P07947)
[45] = molecular target: Tyrosine-protein kinase ZAP-70 (Homo sapiens) (UniProt P43403)

Measured: residual activity

CS(=O)(=O)N1CCCC(NC(=O)[C@H](CCC2CCCCC2)NC(=O)c2ccc(CNc3ncnc4c3nnn4-c3ccccc3)cc2)C1 (stereo not given in full) [SR-301]
inactive: [1] 100% | [2] 100% | [3] 81% | [4] 100% | [5] 100% | [6] 100% | [7] 100% | [8] 71% | [9] 85% | [10] 100% | [11] 95% | [12] 100% | [13] 91% | [14] 96% | [15] 100% | [16] 89% | [17] 80% | [18] 81% | [19] 85% | [20] 100% | [21] 74% | [22] 100% | [23] 100% | [24] 85% | [25] 91% | [26] 100% | [27] 100% | [28] 100% | [29] 95% | [30] 95% | [31] 86% | [32] 100% | [33] 60% | [34] 100% | [35] 100% | [36] 54% | [37] 100% | [38] 86% | [39] 100% | [40] 100% | [41] 96% | [42] 99% | [43] 100% | [44] 98% | [45] 100%

CS(=O)(=O)N1CCCC(NC(=O)[C@H](CCC2CCCCC2)NC(=O)c2ccc(CNC(=O)c3cnc4ccccn34)cc2)C1 (stereo not given in full) [SR-302]
active: [3] 47%
inactive: [1] 94% | [2] 88% | [4] 100% | [5] 100% | [6] 94% | [7] 61% | [8] 91% | [9] 98% | [10] 100% | [11] 100% | [12] 100% | [13] 87% | [14] 97% | [15] 100% | [16] 61% | [17] 100% | [18] 95% | [19] 100% | [20] 92% | [21] 100% | [22] 100% | [23] 74% | [24] 100% | [25] 94% | [26] 95% | [27] 84% | [28] 88% | [29] 88% | [30] 89% | [31] 100% | [32] 100% | [33] 90% | [34] 98% | [35] 99% | [36] 73% | [37] 100% | [38] 100% | [39] 100% | [40] 100% | [41] 100% | [42] 100% | [43] 99% | [44] 88% | [45] 100%
